From patent US8853424B2 (Japan Science and Technology Agency, priority 2008, dated 2014)

Tests used:
transglutaminase (TGase) = test: Measurement of TG (TGase inhibitory activity, monodansyl cadaverine / N,N-dimethylcasein fluorescence, FDSS 3000); format: biochemical
Method in brief: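 Compound (1 μL of 10 mM stock) added to 0.1 mL reaction: 100 mM HEPES-NaOH pH 7.5, 1 mM CaCl2, 20 μM monodansyl cadaverine, 0.05 mg/mL N,N-dimethylcasein, 5 μg/mL TGase. Rate of fluorescence change at 340 nm measured; DMSO control set to 100; TG50 is the concentration halving activity.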

[1] = test system: Truncated N-terminal huntington 150 Q-EGFP-Neuron 2a cells; test: Measurement of x-Fold (polyglutamine aggregation inhibitory activity); format: cell-based
Experimental: In the present invention, the polyglutamine aggregation inhibitory activity (x-Fold) can be measured, for example, by the method described in the Example.
The number of the aggregated cells, and the total number of cells were counted by Array Scan V T1 (manufactured by Cellomics, Pittuburg, USA), and the ratio of the aggregated cells to the total number of cells was determined (x-Fold). […]

[2] = TGase activity with compound (10 mM, 1 μL in 0.1 ml enzyme reaction solution), DMSO control taken as 100
[3] = TGase inhibitory activity value, Table 1
[4] = polyglutamine aggregation inhibitory activity, Table 1
[5] = ratio of aggregated cells to total number of cells, compound 20 μM, 20 hr, almost 1 without compound, smaller = stronger inhibition

| TGase activity remaining (% of DMSO control = 100) (transglutaminase (TGase); [2]) | TGase activity remaining (% of DMSO control = 100) (transglutaminase (TGase); [3]) | TGase activity remaining (% of DMSO control = 100) (transglutaminase (TGase); TGase inhibitory activity value, Table 1, listed as 655) | SMILES | x-Fold [1, 4] | x-Fold [1, 5] | x-Fold ([1]; polyglutamine aggregation inhibitory activity, Table 1, listed as 655) | TGase activity remaining (% of DMSO control = 100) (transglutaminase (TGase); TGase inhibitory activity value, Table 1, listed as 693) | x-Fold ([1]; polyglutamine aggregation inhibitory activity, Table 1, listed as 693) |
| --- | --- | --- | --- | --- | --- | --- | --- | --- |
| 90 | 90 | – | N#Cc1cccc(B(O)c2cccc(C#N)c2)c1 [Example 306, 3,3′-di(cyano-phenyl)borinic acid] | 0.98 | 0.98 | – | – | – |
| 100 | – | – | COc1ccc(B(O)c2cccc(COCc3cccc(B(O)c4ccc(OC)cc4)c3)c2)cc1 [Example 328, bis(3-(4-methoxyphenylhydroxyboryl)benzyl)ether] | – | 1.04 | – | – | – |
| 89 | – | 89 | OB(c1ccccc1)c1cccc(COCc2ccccc2B(O)c2ccccc2)c1 [Example 330, (2-(phenylhydroxyboryl)benzyl)(3-(phenylhydroxyboryl)benzyl)ether] | – | 0.90 | 0.90 | – | – |
| 91 | 91 | – | NCCOB(c1ccccc1)c1ccc(COCc2ccccc2B(OCCN)c2ccccc2)cc1 [Example 335, (2-(phenylaminoethoxyboryl)benzyl) (4-(phenylaminoethoxyboryl)benzyl)ether] | 1.02 | 1.02 | – | – | – |
| 101 | 101 | – | OB(c1ccc(F)cc1)c1cccc(COCc2cccc(B(O)c3ccc(F)cc3)c2)c1 [Example 336, bis(3-(4-fluorophenylhydroxyboryl)benzyl)ether] | 1.02 | 1.02 | – | – | – |
| 102 | 102 | – | Fc1ccc(NCCOBc2cccc(COCc3cccc(BOCCNc4ccc(F)cc4)c3)c2)cc1 [Example 337, bis(3-(4-fluorophenylaminoethoxyboryl)benzyl)ether] | 0.98 | 0.98 | – | – | – |
| 115 | 115 | – | Cc1cc(B(OCCN)c2ccc(COCc3ccc(B(OCCN)c4ccc(Cl)c(C)c4)cc3)cc2)ccc1Cl [Example 339] | 0.91 | 0.91 | – | – | – |
| 107 | – | – | Cc1ccc(B(O)c2ccc(COCc3cccc(B(O)c4ccc(C)c(Cl)c4)c3)cc2)cc1Cl [Example 341, (3-(3-chloro-4-methylphenylhydroxyboryl)benzyl)(4-(3-chloro-4-methylphenylhydroxyboryl)benzyl)ether] | – | 1.04 | – | – | – |
| 114 | 114 | – | OB(c1ccc(COCc2cccc(B(O)c3cc(F)c(F)c(F)c3)c2)cc1)c1cc(F)c(F)c(F)c1 [Example 342, (3-(3′,4′,5′-trifluorophenylhydroxyboryl)benzyl)(4-(3′,4′,5′-trifluorophenylhydroxyboryl)benzyl)ether] | 1.02 | 1.02 | – | – | – |
| 55 | 55 | – | COc1ccc(NCCOBc2cccc(COCc3cccc(BOCCNc4ccc(OC)cc4)c3)c2)cc1 [Example 343, bis(3-(4-methoxyphenylaminoethoxyboryl)benzyl)ether] | 1.02 | 1.02 | – | – | – |
| 91 | 91 | – | Cc1cc(B(O)c2cccc(COCc3ccccc3B(O)c3ccc(Cl)c(C)c3)c2)ccc1Cl [Example 344, (3-(4-chloro-3-methylphenylhydroxyboryl)benzyl)(2-(4-chloro-3-methylphenylhydroxyboryl)benzyl)ether] | 0.93 | 0.93 | – | – | – |
| 95 | 95 | – | N#Cc1ccc(B(O)c2cccc(COCc3cccc(B(O)c4ccc(C#N)cc4)c3)c2)cc1 [Example 345, bis(3-(4-cyanophenylhydroxyboryl)benzyl)ether] | 0.92 | 0.92 | – | – | – |
| 104 | – | – | OB(c1cccc(COCc2cccc(B(O)c3cccc4ccccc34)c2)c1)c1cccc2ccccc12 [Example 347, bis(3-(1′-naphthylhydroxyboryl)benzyl)ether] | – | 0.90 | – | – | – |
| 104 | 104 | – | COc1ccc(F)cc1B(O)c1ccc(COCc2ccc(B(O)c3cc(F)ccc3OC)cc2)cc1 [Example 349, bis(4-(2-methoxy-5-fluorophenylhydroxyboryl)benzyl)ether] | 0.80 | 0.80 | – | – | – |
| 103 | 103 | – | Cc1cc(B(OCCN)c2cccc(COCc3ccccc3B(OCCN)c3ccc(Cl)c(C)c3)c2)ccc1Cl [Example 351] | 1.00 | 1.00 | – | – | – |
| 97 | 97 | – | OB(c1ccc(COCc2ccc(B(O)c3ccc(F)c(F)c3)cc2)cc1)c1ccc(F)c(F)c1 [Example 352, bis(4-(3,4-difluorophenylhydroxyboryl)benzyl)ether] | 1.02 | 1.02 | – | – | – |
| 113 | 113 | – | NCCOB(c1ccc(COCc2cccc(B(OCCN)c3cc(F)c(F)c(F)c3)c2)cc1)c1cc(F)c(F)c(F)c1 [Example 354, (3-(3′,4′,5′-trifluorophenylaminoethoxyboryl)benzyl)(4-(3′,4′,5′-trifluorophenylaminoethoxyboryl)benzyl)ether] | 1.09 | 1.09 | – | – | – |
| 51 | 51 | – | NCCOB(c1ccccc1)c1ccc(-c2ccc(B(OCCN)c3ccccc3)s2)s1 [Example 356, 5,5′-(phenylaminoethoxyboryl)-2,2′-dithiophene] | 1.06 | 1.06 | – | – | – |
| – | 126 | – | c1ccc(B(OCCN2CCN(CCOB(c3ccccc3)c3ccccc3)CC2)c2ccccc2)cc1 [Example 356] | 0.94 | – | – | – | – |
| 89 | 89 | – | Cc1cc(B(OCCN)c2ccccc2)cc(B(OCCN)c2ccccc2)c1 [Example 357, 3,5-di(phenylaminoethoxyboryl)toluene] | 1.03 | 1.03 | – | – | – |
| 112 | 112 | – | Cc1cc(B(O)c2ccccc2)ccc1B(O)c1ccccc1 [Example 358, 2,5-di(phenylhydroxyboryl)toluene] | 0.91 | 0.91 | – | – | – |
| 139 | 139 | – | OB(c1ccccc1)c1ccc2ccccc2c1-c1c(B(O)c2ccccc2)ccc2ccccc12 [Example 359, 2,2′-di(phenylhydroxyboryl)-1,1′-binaphthyl] | 0.96 | 0.96 | – | – | – |
| 88 | 88 | – | NCCOB(c1ccccc1)c1ccc2ccccc2c1-c1c(B(OCCN)c2ccccc2)ccc2ccccc12 [Example 360, 2,2′-di(phenylaminoethoxyboryl)-1,1′-binaphthyl] | 1.05 | 1.05 | – | – | – |
| 108 | 108 | – | Cc1ccc(NCCOBc2ccc(COCc3ccc(BOCCNc4ccc(C)cc4)cc3)cc2)cc1 [Example 362, bis(4-(4-methylphenylaminoethoxyboryl)benzyl)ether] | 1.08 | 1.08 | – | – | – |
| 97 | 97 | – | Cc1ccc(B(O)c2ccc(-c3ccc(B(O)c4ccc(C)cc4)cc3)cc2)cc1 [Example 363, 4,4′-(4-methylphenylhydroxyboryl)diphenyl] | 0.92 | 0.92 | – | – | – |
| 44 | 44 | – | Cc1ccc(B(OCCN)c2ccc(-c3ccc(B(OCCN)c4ccc(C)cc4)cc3)cc2)cc1 [Example 364, 4,4′-(4-methylphenylaminoethoxyboryl)diphenyl] | 0.82 | 0.82 | – | – | – |
| 118 | 118 | – | Cc1ccc(B(O)c2ccc(Oc3ccc(B(O)c4ccc(C)cc4)cc3)cc2)cc1 [Example 365, 4,4′-(4-methylphenylhydroxyboryl)diphenylether] | 0.91 | 0.91 | – | – | – |
| 113 | 113 | – | Cc1ccc(B(O)c2ccc(Oc3ccc(B(O)c4ccc(C)c(Cl)c4)cc3)cc2)cc1Cl [Example 367, 4,4′-bis(3-chloro-4-methyl-phenylhydroxyboryl)diphenylether] | 0.73 | 0.73 | – | – | – |

| SMILES | TGase activity remaining (% of DMSO control = 100) (transglutaminase (TGase); [2]) | TGase activity remaining (% of DMSO control = 100) (transglutaminase (TGase); [3]) | TGase activity remaining (% of DMSO control = 100) (transglutaminase (TGase); TGase inhibitory activity value, Table 1, listed as 655) | x-Fold [1, 4] | x-Fold [1, 5] | x-Fold ([1]; polyglutamine aggregation inhibitory activity, Table 1, listed as 655) | TGase activity remaining (% of DMSO control = 100) (transglutaminase (TGase); TGase inhibitory activity value, Table 1, listed as 693) | x-Fold ([1]; polyglutamine aggregation inhibitory activity, Table 1, listed as 693) |
| --- | --- | --- | --- | --- | --- | --- | --- | --- |
| Cc1cc(B(O)c2ccc(COCc3ccc(B(O)c4ccc(Cl)c(C)c4)cc3)cc2)ccc1Cl [Example 338, bis(4-(4-chloro-3-methyl-phenyl)hydroxyborylbenzyl)ether] | 110 | – | – | – | 0.83 | – | 110 | 0.83 |
